Calls of active or inactive are those of the source. The rule behind the calls is not given here. Where a SMILES comes first, the peptide text is derived from it.
What was measured:
[1] = target: Replicase polyprotein 1ab (Severe acute respiratory syndrome coronavirus 2, UniProt P0DTD1); assay: Inhibition of SARS-CoV-2 MPro using protease substrate preincubated with enzyme for 10 mins followed by substrate addition and measured after 5 mins by FRET based assay
[2] = target: Replicase polyprotein 1ab (Severe acute respiratory syndrome coronavirus 2) (UniProt P0DTD1); assay: Inhibition of SARS-CoV-2 MPro using protease substrate at 1 uM preincubated with enzyme for 10 mins followed by substrate addition and measured after 5 mins by FRET based assay; conditions: time 15.0 min
[3] = Cytotoxicity against African green monkey Vero E6 cells assessed as cell growth inhibition measured after 48 hrs by CCK8 assay; assay type: toxicity, cell-based, Vero C1008; conditions: chlorocebus sabaeus
[4] = system: SARS-CoV-2; assay: Antiviral activity against SARS-CoV-2 infected in African green monkey Vero E6 cells assessed as inhibition of viral infection preincubated for 1 hr followed by incubation in methylcellulose medium for 25 to 26 hrs by TrueBlue based EliSpot analysis; assay type: functional, organism-based; conditions: Severe acute respiratory syndrome coronavirus 2, Vero C1008
[5] = target: T1, Cathepsin K (Homo sapiens, UniProt P43235); assay: Inhibition of human Cathepsin K measured after 30 mins by fluorescence based microplate reader analysis relative to control; assay type: toxicity
T1 sequence (P43235 whole entry): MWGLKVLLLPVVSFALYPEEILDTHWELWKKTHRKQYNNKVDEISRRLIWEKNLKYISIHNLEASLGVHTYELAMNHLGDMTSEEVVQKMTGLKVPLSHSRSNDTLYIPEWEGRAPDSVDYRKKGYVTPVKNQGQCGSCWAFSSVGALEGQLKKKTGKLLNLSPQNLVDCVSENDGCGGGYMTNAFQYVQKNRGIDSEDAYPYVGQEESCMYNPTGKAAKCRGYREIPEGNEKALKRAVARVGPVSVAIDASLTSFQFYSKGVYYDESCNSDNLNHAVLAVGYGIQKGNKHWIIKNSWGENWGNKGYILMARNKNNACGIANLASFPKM

[6] = target: Replicase polyprotein 1ab (Severe acute respiratory syndrome coronavirus 2) (UniProt P0DTD1); assay: Covalent inhibition of SARS-Cov-2 MPro using protease substrate at 1 uM preincubated with enzyme for 5 to 80 mins followed by substrate addition and measured every 10s for 10 mins by FRET based assay; conditions: time 15-90 min, TDE = time-dependent effect
[7] = target: Cathepsin B (Homo sapiens, UniProt P07858); assay: Inhibition of human Cathepsin B at 20 uM measured after 30 mins by fluorescence based microplate reader analysis relative to control; assay type: toxicity; conditions: human Cathepsin B enzyme
[8] = target: T1, Cathepsin K; assay: Inhibition of human Cathepsin K at 20 uM measured after 30 mins by fluorescence based microplate reader analysis relative to control; assay type: toxicity; conditions: human Cathepsin K enzyme
[9] = target: Replicase polyprotein 1ab (Severe acute respiratory syndrome coronavirus 2) (UniProt P0DTD1); assay: Inhibition of SARS-CoV-2 MPro using protease substrate at 5 uM preincubated with enzyme for 10 mins followed by substrate addition and measured after 5 mins in presence of 4 mM DTT by FRET based assay; conditions: time 15.0 min
[10] = target: Replicase polyprotein 1ab (Severe acute respiratory syndrome coronavirus 2) (UniProt P0DTD1); assay: Inhibition of SARS-CoV-2 MPro using protease substrate at 5 uM preincubated with enzyme for 10 mins followed by substrate addition and measured after 5 mins by FRET based assay; conditions: time 15.0 min
[11] = system: SARS-CoV-2; assay: Antiviral activity against SARS-CoV-2; assay type: functional, organism-based; conditions: Severe acute respiratory syndrome coronavirus 2

Q: What does the source list for `O=c1c2ccccc2[se]n1Cc1ccccc1`?
A: IC50 [1]: 364 nM; inhibition [2]: 95.5%; CC50 at 48 h [3]: > 100000 nM; EC50 [4]: 8010 nM

Q: Which inhibition [2] does the source give for `O=c1c2ccccc2[se]n1C1CCN(S(=O)(=O)c2cccs2)CC1` here?
A: 67.8%

Q: For `O=c1c2ccccc2[se]n1Cc1cccnc1`, which IC50 [1] is on record?
A: 459 nM

Q: What about the inhibition [2] of the same compound?
A: 80.6%

Q: Which IC50 [5] does the source give for `O=c1c2ccccc2[se]n1-c1ccccc1` [EBSELEN] here?
A: > 20000 nM

Q: What about the inhibition [6] of the same compound?
A: Tde

Q: And the inhibition [2]?
A: 88.3%

Q: What about the inhibition at 0.5 h, 20 µM [7] of the same compound?
A: 62%

Q: And the CC50 at 48 h [3]?
A: 70500 nM

Q: And the inhibition at 0.5 h, 20 µM [8]?
A: 38%

Q: And the EC50 [4]?
A: 3780 nM

Q: And the inhibition [9]?
A: inactive

Q: And the inhibition [10]?
A: Active

Q: Which inhibition [2] does the source give for `O=c1c2ccccc2[se]n1C1CCNCC1` here?
A: 57.5%

Q: For `O=c1c2ccc([N+](=O)[O-])cc2[se]n1-c1ccccc1`, which inhibition [2] is on record?
A: 49.2%

Q: Which IC50 [1] does the source give for `O=C(Nc1ccc(-n2[se]c3ccccc3c2=O)cc1)C1CC1` here?
A: 490 nM

Q: What about the inhibition [2] of the same compound?
A: 95.5%

Q: For `Nc1ccc2[se]n(-c3ccccc3)c(=O)c2c1`, which inhibition [2] is on record?
A: 21.8%

Q: Which inhibition [2] does the source give for `O=C(Nc1ccc2c(=O)n(-c3ccccc3)[se]c2c1)c1cccs1` here?
A: 38.9%

Q: What does the source list for `Nc1ccc2c(=O)n(-c3ccccc3)[se]c2c1`?
A: IC50 [1]: 322 nM; inhibition [2]: 87%; inhibition [9]: inactive; inhibition [10]: Active

Q: Which EC50 [11] does the source give for `O=C(NC1CCCC1)C(=O)[C@H](C[C@@H]1CCNC1=O)NC(=O)[C@@H]1[C@H]2CCC[C@H]2CN1C(=O)[C@@H](NC(=O)C(F)(F)F)C1CCCCC1` here?
A: 95 nM

Q: With `O=c1c2cc([N+](=O)[O-])ccc2[se]n1-c1ccccc1` as the compound, how does the inhibition [2] read?
A: 18.8%

Q: With `O=C(OCc1ccccc1)N1CCC(n2[se]c3ccccc3c2=O)CC1` as the compound, how does the inhibition [2] read?
A: 71.2%

Q: For `O=c1c2ccccc2[se]n1Cc1ccncc1`, which IC50 [5] is on record?
A: > 20000 nM

Q: And the IC50 [1]?
A: 287 nM

Q: And the inhibition [2]?
A: 97.4%

Q: What about the inhibition at 0.5 h, 20 µM [7] of the same compound?
A: 87%

Q: What about the CC50 at 48 h [3] of the same compound?
A: 55700 nM

Q: What about the inhibition at 0.5 h, 20 µM [8] of the same compound?
A: 42%

Q: And the EC50 [4]?
A: > 20000 nM

Q: What about the inhibition [9] of the same compound?
A: inactive

Q: What about the inhibition [10] of the same compound?
A: Active

Q: Which inhibition [2] does the source give for `CS(=O)(=O)Nc1ccc(C(=O)Nc2ccc(-n3[se]c4ccccc4c3=O)cc2)cc1` here?
A: inactive

Q: Which inhibition [2] does the source give for `CCOC(=O)c1ccc(-n2[se]c3ccccc3c2=O)cc1` here?
A: 68.4%

Q: What about the inhibition at 0.5 h, 20 µM [8] of the same compound?
A: 5%

Q: What does the source list for `O=c1c2ccccc2[se]n1C1CCN(S(=O)(=O)C2CC2)CC1`?
A: IC50 [1]: 356 nM; inhibition [2]: 96.2%; CC50 at 48 h [3]: 27500 nM; EC50 [4]: > 20000 nM

Q: For `NS(=O)(=O)c1ccc(C(=O)N2CCC(n3[se]c4ccccc4c3=O)CC2)cc1`, which IC50 [1] is on record?
A: 550 nM

Q: And the inhibition [2]?
A: 88.3%

Q: Which inhibition [2] does the source give for `O=c1c2ccccc2[se]n1Cc1ccc2[nH]ccc2c1` here?
A: 32.6%

Q: For `CC(C)(C)OC(=O)Nc1ccc(-n2[se]c3ccccc3c2=O)cc1`, which inhibition [2] is on record?
A: 32.1%

Q: With `O=c1c2ccccc2[se]n1Cc1ccc2ccccc2c1` as the compound, how does the inhibition [2] read?
A: 34.6%

Q: With `O=c1c2ccccc2[se]n1C1CCN(S(=O)(=O)c2cccc(Cl)c2)CC1` as the compound, how does the inhibition [2] read?
A: 24.7%

Q: For `CC(=O)N[C@@H](CC(C)C)C(=O)N[C@H](C(=O)N[C@H](C=O)CCCCN)C(C)C` (Ac-Leu-Val-Lys-aldehyde), which inhibition at 0.5 h, 20 µM [7] is on record?
A: 99%

Q: Which results are given for `CC(C)(C)OC(=O)N1CCC(n2[se]c3ccccc3c2=O)CC1`?
A: IC50 [1]: 417 nM; inhibition [2]: 85.2%

Q: Which results are given for `O=c1c2ccccc2[se]n1C1CCN(S(=O)(=O)c2cccnc2)CC1`?
A: IC50 [5]: > 20000 nM; IC50 [1]: 268 nM; inhibition [2]: 101%; inhibition at 0.5 h, 20 µM [7]: 4%; CC50 at 48 h [3]: 13300 nM; EC50 [4]: > 13300 nM

Q: What does the source list for `CN(C)S(=O)(=O)Nc1ccc(-n2[se]c3ccccc3c2=O)cc1`?
A: inhibition [6]: Tde; IC50 [1]: 233 nM; inhibition [2]: 91.8%; CC50 at 48 h [3]: 9910 nM; EC50 [4]: > 9910 nM; inhibition [9]: inactive; inhibition [10]: Active

Q: For `CC(C)(F)C[C@H](N[C@@H](c1ccc(-c2ccc(S(C)(=O)=O)cc2)cc1)C(F)(F)F)C(=O)NC1(C#N)CC1` [ODANACATIB], which inhibition at 0.5 h, 20 µM [8] is on record?
A: 96%

Q: What does the source list for `O=c1c2ccccc2[se]n1-c1ccc(NS(=O)(=O)C2CC2)cc1`?
A: IC50 [1]: 528 nM; inhibition [2]: 89.7%; inhibition [9]: inactive; inhibition [10]: Active

From ChEMBL document CHEMBL5329206 (Bioorg Med Chem, 2023)
